Measurements: PMC4729137, “Functional analysis of androgen receptor mutations that confer anti-androgen resistance identified in circulating cell-free DNA from prostate cancer patients” (Genome Biology, 2016)
Changes are numbered by the printed parent chain.

What was measured:
[1] = target: T1, H875Q-AR (Homo sapiens, UniProt P10275, H875Q); type: cell-based; details: AR mutant H875Q; transfected PC3 cells; 0.1 nM R1881; drug 0 to 50 μM
T1 sequence (P10275 1-920 H875Q): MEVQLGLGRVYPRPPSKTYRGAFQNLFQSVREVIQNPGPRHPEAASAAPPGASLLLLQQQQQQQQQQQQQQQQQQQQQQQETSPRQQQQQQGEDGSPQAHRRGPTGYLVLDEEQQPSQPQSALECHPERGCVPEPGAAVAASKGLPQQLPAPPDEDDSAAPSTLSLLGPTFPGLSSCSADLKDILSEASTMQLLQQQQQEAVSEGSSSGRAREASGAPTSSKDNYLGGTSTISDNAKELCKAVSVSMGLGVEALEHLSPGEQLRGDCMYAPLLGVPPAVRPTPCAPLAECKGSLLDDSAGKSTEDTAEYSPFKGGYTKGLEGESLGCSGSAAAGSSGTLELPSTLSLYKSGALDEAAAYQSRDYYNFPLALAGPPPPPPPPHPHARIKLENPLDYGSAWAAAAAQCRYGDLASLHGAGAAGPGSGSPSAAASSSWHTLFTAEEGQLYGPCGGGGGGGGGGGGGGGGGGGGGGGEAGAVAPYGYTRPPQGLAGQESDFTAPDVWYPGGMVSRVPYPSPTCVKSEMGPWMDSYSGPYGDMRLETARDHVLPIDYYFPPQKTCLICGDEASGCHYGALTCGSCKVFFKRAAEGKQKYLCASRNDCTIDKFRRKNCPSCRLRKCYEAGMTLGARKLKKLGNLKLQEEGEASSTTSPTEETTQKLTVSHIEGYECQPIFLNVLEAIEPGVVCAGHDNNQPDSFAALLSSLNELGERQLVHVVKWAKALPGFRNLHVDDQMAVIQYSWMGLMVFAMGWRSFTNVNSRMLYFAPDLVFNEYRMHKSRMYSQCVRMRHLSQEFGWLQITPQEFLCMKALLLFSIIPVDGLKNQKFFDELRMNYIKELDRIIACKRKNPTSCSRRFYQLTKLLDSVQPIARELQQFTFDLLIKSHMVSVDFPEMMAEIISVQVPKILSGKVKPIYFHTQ
Excerpt: (§1) Full-length human AR (WT-AR) was encoded on a pcDNA3.1 expression plasmid (Life technologies). The LBD point mutations (single and multiple) were generated using the QuikChange II Site-Directed Mutagenesis Kit (Agilent Technologies) as per manufacturer’s instructions using WT-AR as the template. The mutagenic oligonucleotide primers were designed individually with the desired mutation in the middle of the primer with approximately 10 to 15 bases of correct sequence on both sides.
(§2) PC3 cells were seeded and transfected as described above. […] A non-stimulated/no R1881 control was used. After 24 h, cells were lysed and AR-dependent luciferase activity was quantified. Each concentration was assayed in quadruplicate n = 4, with a biological replicate of n = 3. Results were averaged and normalized by expressing them as a percentage of WT AR activity.

[2] = target: T2, D880E-AR (Homo sapiens, UniProt P10275, D880E); type: cell-based; details: AR mutant D880E; transfected PC3 cells; 0.1 nM R1881; drug 0 to 50 μM
T2 sequence (P10275 1-920 D880E): T1 sequence (P10275 1-920 H875Q) with Q875H, D880E
Excerpt: as §1, §2

## CC(C)(O)C(=O)Nc1ccc([N+](=O)[O-])c(C(F)(F)F)c1 [Hydroxyflutamide, hydroxyflutamide]
[1]
  Agonist response to treatment: Partial
[2]
  Agonist response to treatment: Partial
